Source: patent US20070231919A1, “Method for detecting the effect of a toxic substance using sub-mitochondrial particle” (SAMSUNG ELECTRONICS CO., LTD., priority 2005, published 2007)

Test system: electron transport system of SMP (sub-mitochondrial particle)
Assay: pH change caused by SMP after contact with the sample and addition of NADH as external electron donor
Format: biochemical
Details: for pH change rate: control about 0.17 per minute
Experimental: First of all, a large quantity of SMPs were prepared by sonicating mitochondria.
Thereafter, the test tubes 1 to 3 were prepared, wherein 10 ml of a 2 mM KCl solution (control solution) was added to the test tube 1, 10 ml of 10% ethanol dissolved in the control solution was added to the test tube 2, and 10 ml of 20% ethanol dissolved in the same was added to the test tube 3. SMPs prepared above were added to each test tube at a final concentration of 1.4 mg/ml.
Next, 0.1 mM of NADH that acts as an external electron donor was added to each test tube at the same time, and the pH change in each test tube was measured for 5 minutes by using a pH meter.
In order to examine whether the method of the present invention is sensitive to only a toxic substance, the experiment was carried out according to the same method as described in Example 1 except that the sample prepared by dissolving 20% sorbitol in a 2 mM KCl solution was used.

SMILES	pH change rate (10% ethanol (FIG. 5))	pH increase for 5 minutes (10% ethanol in 2 mM KCl, SMP 1.4 mg/ml, 0.1 mM NADH, pH meter, control increased about 0.9)	pH change for 5 minutes (20% ethanol in 2 mM KCl, SMP 1.4 mg/ml, 0.1 mM NADH, pH meter)	pH change rate (20% ethanol, the relatively strong toxic substance (FIG. 5))	pH change compared with control (20% sorbitol in 2 mM KCl, SMP 1.4 mg/ml, 0.1 mM NADH, 5 minutes)
CCO [ethanol]	lower than 0.1 per minute	about 0.4	almost no pH change	lower than 0.02 per minute	–
OC[C@@H](O)[C@@H](O)[C@H](O)[C@@H](O)CO [sorbitol]	–	–	–	–	almost identical to that of a control
